In patent US5567728A, “Receptor ligands” (priority 1991, dated 1996):
Where a name gives a salt, the structure may show the parent alone.

Key:
[1] = target: T1, Human thyroid hormone receptor β1 (hThR β1) (Homo sapiens, UniProt P10828); assay: Binding experiments: displacement of 125I-T-3 from hThR β1; details: [hThRβ]=5.0×10^-11 M; [125I-T3]=2.0×10^-10 M; pH 7,5; incubated over night (16-20 hours); not above +4° C
T1 construct: made in house; host or cells: insect cells, recombinant baculovirus
T1 sequence (P10828 1-461): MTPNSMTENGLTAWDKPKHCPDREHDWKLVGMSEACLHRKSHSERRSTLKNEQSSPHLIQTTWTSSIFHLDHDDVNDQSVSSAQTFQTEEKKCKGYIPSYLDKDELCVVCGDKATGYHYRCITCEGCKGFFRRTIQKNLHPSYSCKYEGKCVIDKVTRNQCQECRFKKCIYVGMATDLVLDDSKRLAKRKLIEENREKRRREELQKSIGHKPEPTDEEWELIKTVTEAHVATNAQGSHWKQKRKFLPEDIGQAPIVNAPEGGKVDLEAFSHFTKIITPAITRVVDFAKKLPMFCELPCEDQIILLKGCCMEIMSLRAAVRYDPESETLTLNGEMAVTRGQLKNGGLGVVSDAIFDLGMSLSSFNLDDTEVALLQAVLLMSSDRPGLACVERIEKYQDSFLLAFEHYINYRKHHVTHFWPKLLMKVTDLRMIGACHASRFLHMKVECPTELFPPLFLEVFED
Method: Human thyroid hormone receptor β1 (hThR β1) was expressed in insect cells using a recombinant baculovirus (Barkhem T., et al. The Journal of Steroid Biochemistry and Molecular Biology: Vol 38, No 6 (1991) p 667).
Solutions of hThR β1 and of ^125 I-T-3 were made in E400 (K2 HPO4 =20 mM, KCl=400 mM, MgCl2 =l mM, EDTA=0,5 mM, monothioglycerol=6 mM, glycerol 8,7% (v/v), histones (type 11AS) 10 μg/ml pH=7,5). Histones and Monothioglycerol were purchased from Sigma (St. Louis, Mo., USA), the other compounds in E400 were from Merck (Darmstadt, BRD). […] Stock solutions of the compound (011) (20 mM) was made in 5% EtOH/1 mM NaOH.
For convenience the incubations were performed over night (16-20 hours).
The incubation was stopped by the loading of 180 μl incubation mixture on a Quik-Sep Sephadex G-25 column (#9041-35-4 ISOLAB, Akron, Ohio, USA). The peak of protein-bound 125 I-T-3 was eluted with 1 ml E400 and collected in a test tube (passage of free T-3 through column is delayed). The eluted radioactivity was measured in a gamma-counter.
All incubations and dilutions were made in polypropylene tubes. Great care was taken to avoid exposure of hThR β1 to temperatures above +4° C.
(DeLean, A., et al, Am. J. Physiol. 235: E97-E102. (1978)).
The calculations were performed in KaleidaGraph™ 2.0.2 (Adelbeck Software) on a Macintosh IIcx computer.
Experiments conducted with [hThRβ]=5.0×10^-11 M and with [^125 I-T3 ]=2.0×10^-10 M

T-3 receptor = assay: biological assay, such as the method of Westerfield et al. (T-3 receptor antagonism); details: "can be shown" by a biological assay such as Westerfield et al.; no data given
[2] = tested on: rat growth hormone (rGH) mRNA levels in cultured rat pituitary cells; details: dose dependent; cited from earlier work
[3] = tested on: coronary vessels of the heart of the rabbit; details: cited from earlier work
[4] = tested on: isolated intestine of the guinea-pig; details: cited from earlier work

Row | IC50 [1] | T-3 receptor antagonism (T-3 receptor) | Structure (SMILES) | inhibition of T-3 induced increase in rGH mRNA levels [2] | dilatory effects on coronary vessels [3] | spasmolytic activity [4]
1 | 4 µM | T-3 receptor antagonists | CCCCc1oc2ccccc2c1C(=O)c1cc(I)c(OCC(=O)O)c(I)c1 [(005), 2-n-butyl-3-(3,5-diiodo-4-carboxymethoxy-benzoyl)benzofuran] |  |  | 
2 | 11 µM | T-3 receptor antagonists | CN(C)CCOc1c(I)cc(C(=O)c2ccc(O)c(I)c2)cc1I [(024), 4'-hydroxy-3'-iodo-3,5-diiodo-4-(2-N,N-dimethylaminoethoxy))benzophenon hydrochloride] |  |  | 
3 |  |  | CCCCc1oc2ccccc2c1C(=O)c1cc(I)c(OCCN(CC)CC)c(I)c1 [Amiodarone] | inhibit T-3 induced increase in rat growth hormone (rGH) mRNA levels |  | 
4 | 10 µM | T-3 receptor antagonists | CCN(CC)CCOc1c(I)cc(C(=O)c2c(C)oc3ccccc23)cc1I [(003), 2-methyl-3-(3,5-diiodo-4-(2-N,N-diethylaminoethoxy)-benzoyl)-benzofuran hydrochloride] |  |  | 
5 | 3.2 µM | T-3 receptor antagonists | CCCCc1oc2ccccc2c1C(=O)c1ccc(O)c(I)c1 [(029), 2-butyl-3-(3-iodo-4-hydroxybenzoyl)benzofuran] |  |  | 
6 | 2.5 µM | T-3 receptor antagonists | Cc1oc2ccccc2c1C(=O)c1cc(I)c(O)c(I)c1 [(011), 2-methyl-3-(3,5-diiodo-4-hydroxy-benzoyl)benzofuran] |  | some dilatory effects on the coronary vessels | spasmolytic activity
7 | 0.42 µM | T-3 receptor antagonists | Oc1ccc(Cc2cc(I)c(O)c(I)c2)cc1I [(032), 4', 4-dihydroxy-3'3,5-triiodo-diphenylmethan] |  |  | 
8 | 8 µM | T-3 receptor antagonists | Cc1oc2ccccc2c1Cc1cc(I)c(OCC(=O)O)c(I)c1 [(015), 2-methyl-3-(3,5-diiodo-4-carboxymethoxybenzyl)benzofuran] |  |  | 
9 | 3.6 µM | T-3 receptor antagonists | CCCCc1oc2ccccc2c1C(O)c1cc(I)c(OCCN(CC)CC)c(I)c1 (stereo not shown) [(001), 3,5-diiodo-4-(2-N,N-diethylaminoethoxy)phenyl-(2-butyl-benzofur-3-yl)methanol hydrochloride] |  |  | 
